Four compounds from US11053205B2, “Phenazine derivatives as antimicrobial agents” (University of Florida Research Foundation, Incorporated, priority 2017, dated 2021) can be followed below.

Each structure is given as a SMILES string. Converted amounts (≈) assume the structure as drawn. Read-outs that look alike come from different tables or passages of the source. Marks after values point to notes of the source that are not given here.

One data set concerns S. epi 12228. Description: MIC, broth microdilution (CLSI). The conditions noted are these: Staphylococcus epidermidis, 12228, read-out: S. epi 12228 MIC. (In broth dilution the organism is exposed to a series of concentrations in liquid medium.)
The test system of a further data set is VRE 700221. Nature of the data set: MIC, broth microdilution (CLSI). The conditions noted are these: for MIC: Enterococcus, VRE.
The subject of data set [1] is human red blood cells. Description: Hemolysis assay with red blood cells. Conditions: 1 hour at 37° C.
The subject of the next data set is MRSA BAA-1707 biofilms. Description: Calgary Biofilm Device (CBD) assay, MBC/MBEC.
A further data set deals with MRSA-2 biofilms. Nature of the data set: Calgary Biofilm Device (CBD) assay, MBC/MBEC.
Another data set deals with MRSA BAA-44 biofilms. Nature of the data set: Calgary Biofilm Device (CBD) assay, MBC/MBEC. The conditions noted are these: biofilm eradication.
Data set [2] deals with MRSE 35984 biofilms. Description: Calgary Biofilm Device (CBD) assay, MBC/MBEC. Conditions: Staphylococcus epidermidis, MRSE, read-out: MRSE 35984 MBC.
Another data set relates to VRE 700221 biofilms. Nature of the data set: Calgary Biofilm Device (CBD) assay, MBC/MBEC.
Data set [3] relates to MRSE 35984 biofilms. Nature of the data set: Live/Dead staining of biofilms. Conditions: 0.1, 5, and 10 μM, 24 hours. The data set is classed as cell-based, Staphylococcus epidermidis. How it is done: (§1) A mid-log culture of MRSE 35894 was diluted 1:1,000-fold and 500 μL was transferred to each compartment of a 4 compartment CELLview dish (Greiner Bio-One 627871). The dish was then incubated for 24 hours at 37° C. After this time, the cultures were removed and the plate was washed with 0.9% saline. The dish was then treated with the compounds in fresh media at various concentrations. DMSO was used as the negative control in this assay. The dish was incubated with the compound for 24 hours at 37° C. After this time, the cultures were removed and the dish was washed with 0.9% saline for 2 minutes. Saline was then removed and 500 μL of the stain (Live/Dead BacLight Viability Kit, Invitrogen) were added for 15 minutes and left in the dark. After this time, the stain was removed and the dish was washed twice with 0.9% saline. Then the dish was fixed with 500 μL 4% paraformaldehyde in PBS for 30 minutes. Images of remaining MRSE biofilms were then taken with a fluorescence microscope. All data were analyzed using Image J software from three independent experiments.
Following biofilm eradication investigations in CBD assays, lead HP 61A was tested against biofilms of MRSE 35984 in live/dead staining experiments (FIG. 30B). After a 24-hour biofilm establishment, HP 61A was added at 0.1, 5, and 10 μM then left to incubate against MRSE 35984 biofilms for an additional 24 hours at 37° C.

For another data set, the system named is MRSA BAA-1707. Nature of the data set: MIC, broth microdilution (CLSI). Conditions: 16 to 18 hours at 37° C.; 0.10 = lowest concentration tested.
The subject of another data set is MRSE 35984. Description: MIC, broth microdilution (CLSI). The conditions noted are these: 16 to 18 hours at 37° C.
In data set [4] the test system is M. tuberculosis H37Ra (ATCC 25177). Description: MIC assay for Mycobacterium tuberculosis. In kind it is cell-based. Conditions: Mycobacterium tuberculosis, 168 h; seven days at 37° C.; read-out: MtB H37Ra MIC. As for the experimental part: The culture was then diluted with fresh medium until an OD600 of 0.01 was reached. […] The final DMSO concentration was maintained at 0.5%. […] Three rows were reserved for each compound. […] OD600 absorbance was recorded using SPECTRAMAX M5 (Molecular Devices). Data obtained from three independent experiments were analyzed using Excel.
The culture was then diluted with fresh medium until an OD600 of 0.01 was reached. […] The final DMSO concentration was maintained at 0.5%. […] Three rows were reserved for each compound. […] OD600 absorbance was recorded using SpectraMax M5 (Molecular Devices). Data obtained from three independent experiments were analyzed using Excel.

Data set [5] relates to human red blood cells. The conditions noted are these: human, 1 h, 200 μM, pH 7.2.
The test system of data set [6] is MRSA, MRSE and VRE biofilms. Nature of the data set: CBD assays against MRSA, MRSE, and VRE biofilms (all strains). Conditions: strains not given.
A further data set can be described thus: UV-Vis metal(II) binding. In kind it is physicochemical. The conditions noted are these: kinetics of UV-Vis experiments.
For the next data set, the system named is MRSA-1707 biofilms. Description: Live/Dead staining of biofilms. In kind it is cell-based, Staphylococcus aureus. Conditions: 0.1, 1 and 5 μM, 24 hours. As for the experimental part:
as §1, with “To support the CBD assay findings, LIVE/DEAD experiments were performed with potent Compound 27 (FIG. 7). A mid-log” for “A mid-log”, “culture of MRSA-2 was diluted” for “culture of MRSE 35894 was diluted”, “4 compartment […] dish (Greiner” for “4 compartment CELLview dish (Greiner”, “stain was removed, and the” for “stain was removed and the”, “of remaining MRSA-2 biofilms were” for “of remaining MRSE biofilms were”, “Image J software.” for “Image J software from three independent experiments.”
HP 1-17 was tested against MRSA-1707 biofilms in live/dead staining experiments. […] After this time, images of the treated and untreated MRSA-1707 biofilms were obtained using fluorescence microscopy (FIG. 20).

In the next data set the test system is MRSA-1. Nature of the data set: MIC, broth microdilution (CLSI). The conditions noted are these: Staphylococcus aureus, MRSA, read-out: MRSA-1 MIC.

Experimental for UV-Vis metal(II) binding: Spectral scanning was performed from 200 to 800 nm in 2 nm increments.

With `CN[C@H](CC(C)C)C(=O)N[C@H]1C(=O)N[C@@H](CC(N)=O)C(=O)N[C@H]2C(=O)N[C@H]3C(=O)N[C@H](C(=O)N[C@H](C(=O)O)c4cc(O)cc(O)c4-c4cc3ccc4O)[C@H](O)c3ccc(c(Cl)c3)Oc3cc2cc(c3O[C@@H]2O[C@H](CO)[C@@H](O)[C@H](O)[C@H]2O[C@H]2C[C@](C)(N)[C@H](O)[C@H](C)O2)Oc2ccc(cc2Cl)[C@H]1O` [vancomycin, reference compound], the minimum inhibitory concentration (MIC) is 1.17 µM (≈ 1.7 µg/mL) in the data set with S. epi 12228 and greater than 100 µM in the data set with VRE 700221 (read-out: VRE 700221 MIC). The “Hemolysis at 200 μM” value in the data set with human red blood cells [1] is on record as no more than 1%. The MBC with MRSA BAA-1707 biofilms (Staphylococcus aureus, read-out: MRSA BAA-1707 MBC) was 3.9 µM (≈ 5.65 µg/mL); in the data set on MRSA-2 biofilms (Staphylococcus aureus, MRSA, read-out: MRSA-2 MBC) it was 3 µM (≈ 4.35 µg/mL); with MRSE 35984 biofilms [2], 3 µM (≈ 4.35 µg/mL); with VRE 700221 biofilms (Enterococcus, VRE, read-out: VRE 700221 MBC), greater than 200 µM. The “biofilm eradication activities against MRSA biofilms” value with MRSA BAA-1707 biofilms (at 2,000 μM (highest concentration tested)) is “no biofilm eradication activities”. Also, in the data set with MRSA-2 biofilms (CBD, biofilm eradication), the “MRSA-2 MBEC” value was greater than 2000 µM. The “MRSA BAA-44 MBEC” value with MRSA BAA-44 biofilms is greater than 2000 µM. The “VRE 700221 MBEC” value in the data set on VRE 700221 biofilms (CBD, biofilm eradication) amounted to 150 µM.
Take `Oc1c(Br)cc(Br)c2nc3cc(Cl)ccc3nc12` [61A]: the “biofilm eradication and clearance (live/dead staining)” value with MRSE 35984 biofilms [3] was “highly potent eradication and clearance of MRSE 35984 biofilms”. The compound also gave an IC50 in the data set on HeLa cells greater than 100 µM. In addition, the “MRSA BAA-1707 MIC” value in the data set with MRSA BAA-1707 was determined as 0.038 µM. Besides, the “MRSE 35984 MIC” value in the data set on MRSE 35984 came to 0.1 µM. The “VRE 700221 MIC” value in the data set on VRE 700221 (16 to 18 hours at 37° C.) was found to be 0.39 µM. Further, the “MRSA BAA-1707 MBEC” value with MRSA BAA-1707 biofilms (CBD, biofilm eradication) came to 4.69 µM.
For the compound `CCc1cccc2nc3c(O)c(Br)cc(Br)c3nc12` [HP 1-18], the MIC in data set [4] was 25 µM (≈ 9.55 µg/mL); with VRE 700221 (read-out: VRE 700221 MIC, 16 to 18 hours at 37° C.), 0.15 to 1.56 µM (≈ 0.0573 to 0.596 µg/mL). For the same compound, in the data set on human red blood cells [5], the “Hemolysis at 200 μM” value worked out at 1.7%. Moreover, the “MRSA BAA-1707 MIC” value in the data set with MRSA BAA-1707 is 0.10^c μM. Besides, in the data set with MRSE 35984, the “MRSE 35984 MIC” value is recorded as 0.10^c μM. In [6], this compound displayed an MBEC of 0.59 to 2.35 µM.
With `Cc1cccc2nc3c(O)c(Br)cc(Br)c3nc12` [HP 1-17], the MIC in data set [4] came out at 25 µM (≈ 9.2 µg/mL); in the data set on MRSA-1, 0.1 µM (≈ 0.0368 µg/mL). In addition, the “rate of copper(II) chelation” value in “UV-Vis metal(II) binding” is reported as “faster rate than HP 1”. In the data set on MRSA-1707 biofilms, the “biofilm eradication and clearance (live/dead staining)” value is “potent biofilm eradication and clearance response”. In addition, in the data set with human red blood cells [5], the “Hemolysis at 200 μM” value is recorded as 6.7%.

For orientation: MIC means the least concentration at which growth counts as inhibited. Usually IC50 stands for the point on the concentration scale where inhibition reaches its midpoint. Low values mean greater potency in that assay, high ones weaker potency in that assay.
